Data published in patent publication US4348264A, “Photocatalyzed process for producing carbapenams and carbapen-2-ems” (Pfizer Inc., priority 1981, dated 1982).
Converted amounts (≈) assume the structure as drawn.

Key:
Format in all cases: cell-based
Proteus morgani = test: Serial dilution-tube method, MIC; conditions: brain heart infusion broth; read-out: Minimum Inhibitory Concentration
Enterobacter cloacae = test: Serial dilution-tube method, MIC; conditions: Enterobacter cloacae; brain heart infusion broth; read-out: Minimum Inhibitory Concentration
Pseudomonas aeruginosa = test: Serial dilution-tube method, MIC; conditions: Pseudomonas aeruginosa; brain heart infusion broth; read-out: Minimum Inhibitory Concentration
Staphylococcus aureus [1] = test: Serial dilution-tube method, MIC; conditions: Staphylococcus aureus; brain heart infusion broth; read-out: Minimum Inhibitory Concentration
[2] = system: Staphylococcus aureus (Antibiotic Resistant); test: Serial dilution-tube method, MIC; set-up: key to synergistic effect with ampicillin: Shows a synergistic effect when tested 1:1 with ampicillin; conditions: for MIC: Staphylococcus aureus, brain heart infusion broth, read-out: Minimum Inhibitory Concentration
Serratia marcescens = test: Serial dilution-tube method, MIC; conditions: Serratia marcescens; brain heart infusion broth; read-out: Minimum Inhibitory Concentration
Escherichia coli [3] = test: Serial dilution-tube method, MIC; conditions: Escherichia coli; brain heart infusion broth; read-out: Minimum Inhibitory Concentration
Bacillus subtilis = test: Standard disc-plate method, zone of inhibition; conditions: Bacillus subtilis; 25 microgram discs
Text: (§1) The utility of the various compounds as intermediates to other compounds of the present invention will be evident from the preceding discussion. The antibacterial activity of these compounds, reflecting their utility in the control of susceptible bacterial infections in man and animals, as animal feed additives for promotion of growth, or as preservatives of materials biodegraded by susceptible microorganisms, is best measured by the standard disc-plate method routinely employed in clinical laboratories for determining the sensitivity of microorganisms to antimicrobial substances. Sensitivity discs are prepared by dipping a standard 6.25 mm. paper disc into a solution of the compound to be tested (conc. 1 mg./ml.) in a volatile solvent (e.g. methylene chloride) and the disc dried, producing discs containing approximately 25 microg. of the compound. The discs are placed on the surface of agar growth media seeded with the test microorganism, previously plated into Petri dishes. The plates are incubated overnight at 35°-37° C. Activity of the test compound is reflected by a zone of inhibition of bacterial growth around the test disc. The diameter of this zone provides a quantitative measure of the activity of the antibacterial substance. The activity of various compounds of the present invention is summarized in Table I. For comparison, results obtained with 10 microg. discs of ampicillin and penicillin G are included as positive controls.

Staphylococcus aureus [4] = test: Standard disc-plate method, zone of inhibition; conditions: Staphylococcus aureus; 25 microgram discs
Text: as §1

Vibrio percolans = test: Standard disc-plate method, zone of inhibition; conditions: Comamonas terrigena, 25 microgram discs
Text: as §1

Micrococcus luteus = test: Standard disc-plate method, zone of inhibition; conditions: Micrococcus luteus; 25 microgram discs
Text: as §1

Escherichia coli [5] = test: Standard disc-plate method, zone of inhibition; conditions: Escherichia coli, 25 microgram discs
Text: as §1

[6] = system: Staphylococcus aureus (Antibiotic Resistant); test: Standard disc-plate method, zone of inhibition; conditions: Staphylococcus aureus; 25 microgram discs; antibiotic resistant
Text: as §1

[7] = system: Escherichia coli (Antibiotic Resistant); test: Serial dilution-tube method, MIC; conditions: Escherichia coli, brain heart infusion broth, read-out: Minimum Inhibitory Concentration
Citrobacter diversus = test: Serial dilution-tube method, MIC; conditions: Citrobacter koseri; brain heart infusion broth; read-out: Minimum Inhibitory Concentration
Klebsiella pneumoniae = test: Serial dilution-tube method, MIC; conditions: Klebsiella pneumoniae; brain heart infusion broth; read-out: Minimum Inhibitory Concentration

SMILES | MIC (Proteus morgani) | MIC (Enterobacter cloacae) | MIC (Pseudomonas aeruginosa) | MIC (Staphylococcus aureus [1]) | MIC [2] | MIC (Serratia marcescens) | MIC (Escherichia coli [3]) | zone of inhibition at 25 µg/disc (Bacillus subtilis) | zone of inhibition at 25 µg/disc (Staphylococcus aureus [4]) | zone of inhibition at 25 µg/disc (Vibrio percolans) | zone of inhibition at 25 µg/disc (Micrococcus luteus) | zone of inhibition at 25 µg/disc (Escherichia coli [5]) | zone of inhibition at 25 µg/disc [6] | MIC [7] | MIC (Citrobacter diversus) | MIC (Klebsiella pneumoniae) | synergistic effect with ampicillin ([2]; tested 1:1 with ampicillin)
CC1=C(C(=O)OCOC(=O)C(C)(C)C)N2C(=O)CC2C1=O (centres unmarked) [H H POM CH3 O II, Pivaloyloxymethyl 2-Methyl-1-oxocarbapen-2-em-3-carboxylate] | > 200 µg/mL | > 200 µg/mL | > 200 µg/mL | > 200 µg/mL | > 200 µg/mL | > 200 µg/mL | > 200 µg/mL | 37 mm | 22 mm | 14 mm | 26 mm | 0 mm | 18 mm | > 200 µg/mL | > 200 µg/mL | > 200 µg/mL | –
CC1C(O)C2C(NC(=O)COc3ccccc3)C(=O)N2C1C(=O)OCOC(=O)C(C)(C)C (centres unmarked) [PMA H POM CH3 H OH I, Pivaloyloxymethyl 1-Hydroxy-2-methyl-6-(2-phenoxyacetamido)carbapenam-3-carboxylate] | > 200 µg/mL | > 200 µg/mL | > 200 µg/mL | 25 µg/mL (≈ 55.7 µM) | 200 µg/mL | > 200 µg/mL | > 200 µg/mL | 23 mm | 20 mm | – | 14 mm | 0 mm | 17 mm | > 200 µg/mL | > 200 µg/mL | > 200 µg/mL | a
